IC50 data for 19 compounds are collected here from patent US12018021B2 (UCB Biopharma SRL, priority 2018, dated 2024).

As a reminder, the IC50 is the midpoint of a concentration-inhibition curve.

Chain of IgE-Tb / sFcεRIα-Y131A-AF488 (P01854 whole entry N146Q/N252Q): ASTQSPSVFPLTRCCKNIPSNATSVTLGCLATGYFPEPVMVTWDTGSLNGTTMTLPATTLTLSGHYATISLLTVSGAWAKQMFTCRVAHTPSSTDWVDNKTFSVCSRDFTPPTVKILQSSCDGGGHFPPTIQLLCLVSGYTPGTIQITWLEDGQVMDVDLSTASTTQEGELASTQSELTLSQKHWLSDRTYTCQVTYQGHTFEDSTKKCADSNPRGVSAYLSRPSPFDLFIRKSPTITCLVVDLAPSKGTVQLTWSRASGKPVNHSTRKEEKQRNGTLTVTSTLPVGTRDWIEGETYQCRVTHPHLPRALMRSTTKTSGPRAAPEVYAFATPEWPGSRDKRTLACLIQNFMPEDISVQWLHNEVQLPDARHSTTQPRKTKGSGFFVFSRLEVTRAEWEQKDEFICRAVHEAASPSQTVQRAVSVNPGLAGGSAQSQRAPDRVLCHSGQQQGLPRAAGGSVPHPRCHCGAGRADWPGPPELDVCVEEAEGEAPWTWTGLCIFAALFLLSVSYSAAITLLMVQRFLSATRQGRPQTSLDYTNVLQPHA

This assay has as its target IgE-Tb / sFcεRIα-Y131A-AF488 (Homo sapiens, UniProt P01854, N146Q/N252Q). The assay can be described thus: IgE-Tb / sFcεRIα-Y131A-AF488 FRET assay (protocol for examples 234 to 501). It counts as binding. The note with it: examples 234 to 501: compound with IgE-Tb 30 minutes before sFcεRIα-Y131A-AF488, incubated 18 hours at room temperature; read-out: Y131A FRET IC50 range. On the procedure: For examples 234 to 501, the assay was conducted according to the following: Each assay reaction was conducted in a volume of 25 μl in a 384-well half-volume plate. 10 point compound serial dilutions (3-fold) were generated in DMSO at a concentration of ×50 that of the final assay concentration (FAC). Compound solutions were then prepared by diluting 10-fold in assay buffer. For the assay, 5l of diluted compound was added to 10 μl of IgE-Tb and incubated for 30 minutes before the addition of 10 μ[…]. FRET reagents FACs were 5 nM IgE-Tb, 25 nM […]. Usually the top FAC of compound in the assay was 10 μM. The final DMSO concentration was 2%. […] The maximum FRET signal (MAX) was measured in wells containing FRET reagents but no compound. The assay was incubated for 18 hours at room temperature, protected from light and evaporation, and with gentle agitation. Measurement of FRET for each well was carried out by exciting at 337 nm and measuring emission at 490/520 nm using a PHERAstar FSX plate reader (BMG Labtech). FRET ratio was calculated as follows: Emission at 520/7Emission at 490×1000. The FRET ratio was used for the data analysis. […] Z' above 0.5 was considered a good assay. Background signal (MIN) was subtracted from all wells. […] Percent inhibition was plotted against compound concentration. IC50 values for each compound were determined using four parameter logistic fit model using the XLFIT5 software package.
With `COc1cc(Nc2nncn2[C@H]2CCc3sc(NC(=O)[C@H]4C[C@@H]4C)c(C(=O)N[C@@H]4CC45CC5)c3C2)n(C)n1` (relative stereo) [Example 465, (5S)-5-[3-[(5-methoxy-2-methyl-pyrazol-3-yl)amino]-1,2,4-triazol-4-yl]-2-[[(1S,2S)-2-methylcyclopropanecarbonyl]amino]-N-[(2R*)-spiro[2.2]pentan-2-yl]-4,5,6,7-tetrahydrobenzothiophene-3-carboxamide [* or 5]], the IC50 is below 1 µM.

As to `Cn1nc(C(F)F)cc1Nc1nncn1[C@H]1CCc2sc(NC(=O)[C@H]3C[C@H](F)C3)c(C(=O)NC[C@H]3CC3(F)F)c2C1` (relative stereo) [Example 472, (5S)—N-[[(1R*)-2,2-difluorocyclopropyl]methyl]-5-[3-[[5-(difluoromethyl)-2-methyl-pyrazol-3-yl]amino]-1,2,4-triazol-4-yl]-2-[trans-(3-fluorocyclobutanecarbonyl)amino]-4,5,6,7-tetrahydrobenzothiophene-3-carboxamide [* or S]], the concentration for half-maximal inhibition (IC50) is below 1 µM. As to `Cn1nc(C(F)F)cc1Nc1nncn1[C@H]1CCc2sc(NC(=O)[C@H]3CC3(F)F)c(C(=O)NC[C@H]3C[C@H]3F)c2C1` (relative stereo) [Example 498, (5S)-2-[[(1R*)-2,2-difluorocyclopropanecarbonyl]amino]-5-[3-[[5-(difluoromethyl)-2-methyl-pyrazol-3-yl]amino]-1,2,4-triazol-4-yl]-N-[[(1R,2R)-2-fluorocyclopropyl]methyl]-4,5,6,7-tetrahydrobenzothiophene-3-carboxamide (* or S)], the concentration for half-maximal inhibition (IC50) is below 1 µM.

In the case of `Cc1cc(Nc2nncn2[C@H]2CCc3sc(NC(=O)[C@H]4CC45CC5)c(C(=O)NCC4CC4)c3C2)n(C)n1` (relative stereo) [Example 500, (5S)—N-(cyclopropylmethyl)-5-[3-[(2,5-dimethylpyrazol-3-yl)amino]-1,2,4-triazol-4-yl]-2-[[(2S*)-spiro[2.2]pentane-2-carbonyl]amino]-4,5,6,7-tetrahydrobenzothiophene-3-carboxamide (* or R)], the IC50 was below 1 µM.

Take `O=C(NCC1CC1)c1c(NC(=O)C2CC2)sc2c1C[C@@H](n1cnnc1NC1CCS(=O)(=O)C1)CC2` (single isomer, unassigned) [Example 234, (5S)-2-(cyclopropanecarbonylamino)-N-(cyclopropylmethyl)-5-[3-[[(3S*)-1,1-dioxothiolan-3-yl]amino]-1,2,4-triazol-4-yl]-4,5,6,7-tetrahydrobenzothiophene-3-carboxamide]: the IC50 was below 1 µM. Take `Cc1c(Nc2nncn2[C@H]2CCc3sc(NC(=O)C4CC4)c(C(=O)NCC4CC4)c3C2)cccc1[S@@](C)(=N)=O` (single isomer, unassigned) [Example 236]: the IC50 was below 1 µM. For `Cc1c(Nc2nncn2[C@H]2CCc3sc(NC(=O)C4CC4)c(C(=O)NCC4CC4)c3C2)cccc1[S@](C)(=N)=O` (single isomer, unassigned) [Example 237] the value was below 1 µM; for `CC(=O)N1CC[C@](C)(Nc2nncn2[C@H]2CCc3sc(NC(=O)C4CC4)c(C(=O)NCC4CC4)c3C2)C1` (single isomer, unassigned) [Example 239, (5S)-5-[3-[[(3*)-1-acetyl-3-methyl-pyrrolidin-3-yl]amino]-1,2,4-triazol-4-yl]-2-(cyclopropanecarbonylamino)-N-(cyclopropylmethyl)-4,5,6,7-tetrahydrobenzothiophene-3-carboxamide], below 1 µM.

As for `CC1CN(S(C)(=O)=O)CC1Nc1nncn1[C@H]1CCc2sc(NC(=O)C3CC3)c(C(=O)NCC3CC3)c2C1` (single isomer, unassigned) [Example 242], the IC50 was below 1 µM.

On to `C[S@](=N)(=O)c1cccc(Nc2nncn2[C@H]2CCc3sc(NC(=O)C4CC4)c(C(=O)NCC4CC4)c3C2)c1` (single isomer, unassigned) [Example 253], for which the IC50 was below 1 µM. As for `C[S@@](=N)(=O)c1cccc(Nc2nncn2[C@H]2CCc3sc(NC(=O)C4CC4)c(C(=O)NCC4CC4)c3C2)c1` (single isomer, unassigned) [Example 254], the figure is below 1 µM. For the compound `CS(=O)(=O)c1cccc(Nc2nncn2[C@H]2CCc3sc(NC(=O)C4CC45CC5)c(C(=O)NCC4CC4)c3C2)n1` (single isomer, unassigned) [Example 256, (5S)—N-(cyclopropylmethyl)-5-[3-[(6-methylsulfonyl-2-pyridyl)amino]-1,2,4-triazol-4-yl]-2-[[(2S*)-spiro[2.2]pentane-2-carbonyl]amino]-4,5,6,7-tetrahydrobenzothiophene-3-carboxamide], the IC50 is below 1 µM. With `CC1CCCCC1Nc1nncn1[C@H]1CCc2sc(NC(=O)C3CC3)c(C(=O)NCC3CC3)c2C1` (single isomer, unassigned) [Example 269], the IC50 is below 1 µM.

Consider `O=C1CC(Nc2nncn2[C@H]2CCc3sc(NC(=O)C4CC4)c(C(=O)NCC4CC4)c3C2)CN1` (single isomer, unassigned) [Example 271, (5S)-2-(cyclopropanecarbonylamino)-N-(cyclopropylmethyl)-5-[3-[[(3R*)-5-oxopyrrolidin-3-yl]amino]-1,2,4-triazol-4-yl]-4,5,6,7-tetrahydrobenzothiophene-3-carboxamide], for which the half-inhibitory concentration (IC50) was below 1 µM. For `CC1C(Nc2nncn2[C@H]2CCc3sc(NC(=O)C4CC4)c(C(=O)NCC4CC4)c3C2)CCN1S(C)(=O)=O` (single isomer, unassigned) [Example 274] the value was below 1 µM. With `Cc1ccc(C2CC(Nc3nncn3[C@H]3CCc4sc(NC(=O)C5CC5)c(C(=O)NCC5CC5)c4C3)C2)cn1` (single isomer, unassigned) [Example 276], the 50% inhibitory concentration (IC50) is below 1 µM. Turning to `Cn1nc(C(F)F)cc1Nc1nncn1[C@H]1CCc2sc(NC(=O)C3CC3(F)F)c(C(=O)NC[C@H]3C[C@H](F)C3)c2C1` (single isomer, unassigned) [Example 278, (5S)-2-[[(1R*)-2,2-difluorocyclopropanecarbonyl]amino]-5-[3-[[5-(difluoromethyl)-2-methyl-pyrazol-3-yl]amino]-1,2,4-triazol-4-yl]-N-[trans-(3-fluorocyclobutyl)methyl]-4,5,6,7-tetrahydrobenzothiophene-3-carboxamide], the half-inhibitory concentration (IC50) is below 1 µM. As for `Cn1nc(OC(F)F)cc1Nc1nncn1[C@H]1CCc2sc(NC(=O)C3CC3(F)F)c(C(=O)N[C@H]3C[C@H](F)C3)c2C1` (single isomer, unassigned) [Example 279, (5S)-2-[[(1R*)-2,2-difluorocyclopropanecarbonyl]amino]-5-[3-[[5-(difluoromethoxy)-2-methyl-pyrazol-3-yl]amino]-1,2,4-triazol-4-yl]-N-(trans-3-fluorocyclobutyl)-4,5,6,7-tetrahydrobenzothiophene-3-carboxamide], the figure is below 1 µM. For `Cn1nc(OC(F)F)cc1Nc1nncn1[C@H]1CCc2sc(NC(=O)C3CC3(F)F)c(C(=O)NC[C@H]3C[C@H](F)C3)c2C1` (single isomer, unassigned) [Example 280, (5S)-2-[[(1R*)-2,2-difluorocyclopropanecarbonyl]amino]-5-[3-[[5-(difluoromethoxy)-2-methyl-pyrazol-3-yl]amino]-1,2,4-triazol-4-yl]-N-[trans-(3-fluorocyclobutyl)methyl]-4,5,6,7-tetrahydrobenzothiophene-3-carboxamide] the value was below 1 µM.
